In patent publication US20250223296A1, “HYDROXYMETHYL AZABICYCLO[2.2.1]HEPTANES AND MEDICAL USES THEREOF” (ATROGI AB, priority 2022, published 2025) one finds Emax data, which are given here for 16 compounds.

Assay [1] has as its system L6-myotubes. In words: Glucose uptake (3H-2-deoxyglucose) in differentiated L6-myotubes. It is filed as cell-based. The note with it: compound at 10 µM (1×10^−5 M) vs isoproterenol at 10 µM, read-out: Biological example 1: glucose uptake, activity compared to that of isoproterenol. On the procedure:
L6-myoblasts were grown in Dulbecco's Modified Eagle's Medium (DMEM) containing 1 g/L glucose supplemented with 10% fetal bovine serum, 2 mM L-Glutamine, 50 U/ml penicillin, 50 μg/mL streptomycin and 10 mM HEPES. Cells were plated at 1×10^5 cells per mL in 24-well plates. After reaching 90% confluence the cells were grown in medium containing 2% FBS for 7 days where upon cells differentiated into myotubes. Differentiated L6-myotubes were serum-starved overnight in medium containing 0.5% fatty-acid free BSA and stimulated with an agonist, with a final concentration of 1×10^−5 M. After 1 h 40 min the cells were washed with warm glucose free medium or PBS twice and another portion of agonist was added to the glucose free medium. After 20 min the cells were exposed to 50 nM ^3H-2-deoxyglucose for another 10 min before washed in ice cold glucose free medium or PBS three times and lysed in 400 μL/well 0.2 M NaOH for 1 h at 60° C. The cell lysate was mixed with 4 mL scintillation buffer (Emulsifier Safe, Perkin Elmer) and the radioactivity was detected in a β-counter (Tri-Carb 4810TR, Perkin Elmer). The activity for each compound is compared to that of isoproterenol.

Assay [2] has as its system L6-myotubes. In words: Measurement of intracellular cAMP levels in differentiated L6 cells. It is filed as cell-based. The note with it: Rattus norvegicus, L6, 0.25 h, compound at 10 µM (1×10^−5 M), 15 min, vs isoproterenol at 10 µM, read-out: Biological example 2: intracellular cAMP levels, activity compared to that of isoproterenol. On the procedure: L6-myoblasts were grown in Dulbecco's Modified Eagle's Medium (DMEM) containing 1 g/L glucose supplemented with 10% fetal bovine serum, 2 mM L-Glutamine, 50 U/ml penicillin, 50 μg/mL streptomycin and 10 mM HEPES. Cells were plated at 1×10^5 cells per mL in 24-well plates. After reaching 90% confluence the cells were grown in medium containing 2% FBS for 7 days where upon cells differentiated into myotubes. Differentiated cells were serum-starved overnight and stimulated with an agonist, final concentration 1×10^−5 M, for 15 min in stimulation buffer (HBSS supplemented with 1% BSA, 5 mM HEPES and 1 mM IBMX, pH 7.4). The medium was aspirated and 100 μL of 95% EtOH was added to each well of the 24-well plate and cells were kept at −20° C. overnight. The EtOH was allowed to evaporate and 500 μL of lysis buffer (1% BSA, 5 mM HEPES and 0.3% Tween-20, pH 7.4) was added to each well. The plate was kept at −80° C. for 30 min and then at −20° C. until the day of detection when the samples were thawed. Intracellular cAMP levels were detected using an alpha screen CAMP kit (6760635D from Perkin Elmer). The activity for each compound is compared to that of isoproterenol.

Molecules are shown by their SMILES. Where a name gives a salt, the structure may show the parent alone.

Regarding `CS(=O)(=O)Nc1cccc(CC23CCC([C@H](O)c4cccc(F)c4)(CC2)N3)c1` [Example 27, N-(3-((4-((R)-(3-Fluorophenyl)(hydroxy)methyl)-7-azabicyclo-[2.2.1]heptan-1-yl)methyl)phenyl)methanesulfonamide], the Emax at 10 µM in assay [1] is 50 to 75%; in assay [2], under 25%.
For `CS(=O)(=O)Nc1cccc(CC23CCC([C@@H](O)c4cccc(F)c4)(CC2)N3)c1` [Example 28, N-(3-((4-((S)-(3-Fluorophenyl)(hydroxy)methyl)-7-azabicyclo[2.2.1]-heptan-1-yl)methyl)phenyl)methanesulfonamide], in that order: 50 to 75% and under 25%.
In the same order, the values of `O[C@H](c1cncc(F)c1)C12CCC(C/C=C/c3ccccc3)(CC1)N2` [Example 29, (R)-(4-Cinnamyl-7-azabicyclo[2.2.1]heptan-1-yl)(5-fluoropyridin-3-yl)-methanol] are over 75% and under 25%.
`O[C@@H](c1cncc(F)c1)C12CCC(C/C=C/c3ccccc3)(CC1)N2` [Example 30, (S)-(4-Cinnamyl-7-azabicyclo[2.2.1]heptan-1-yl)(5-fluoropyridin-3-yl)-methanol]: the Emax at 10 µM in assay [1] was 25 to 50%; in assay [2], under 25%.
In the same order, the values of `O[C@H](c1cccc(F)c1)C12CCC(C/C=C/c3ccccc3)(CC1)N2` [Example 31, (R)-(4-Cinnamyl-7-azabicyclo[2.2.1]heptan-1-yl)(3-fluorophenyl)methanol] are over 75% and under 25%.
Regarding `O[C@@H](c1cccc(F)c1)C12CCC(C/C=C/c3ccccc3)(CC1)N2` [Example 32, (S)-(4-Cinnamyl-7-azabicyclo[2.2.1]heptan-1-yl)(3-fluorophenyl)methanol], the Emax at 10 µM in assay [1] and in assay [2] was under 25% each time.
For `O[C@H](c1cncc(F)c1)C12CCC(CCCc3ccccc3)(CC1)N2` [Example 33, (R)-(5-Fluoropyridin-3-yl)(4-(3-phenylpropyl)-7-azabicyclo[2.2.1]heptan-1-yl)methanol hydrochloride], the figures for the Emax at 10 µM in assay [1] and in assay [2] were 50 to 75% and 25 to 50%, respectively.
In the same order, the values of `O[C@@H](c1cncc(F)c1)C12CCC(CCCc3ccccc3)(CC1)N2` [Example 34, (S)-(5-Fluoropyridin-3-yl)(4-(3-phenylpropyl)-7-azabicyclo[2.2.1]heptan-1-yl)methanol hydrochloride] are 50 to 75% and under 25%.
For `O[C@H](c1cccc(F)c1)C12CCC(CCCc3ccccc3)(CC1)N2` [Example 35, (R)-(3-Fluorophenyl)(4-(3-phenylpropyl)-7-azabicyclo[2.2.1]heptan-1-yl)methanol hydrochloride], in that order: over 75% and 25 to 50%.
For `O[C@@H](c1cccc(F)c1)C12CCC(CCCc3ccccc3)(CC1)N2` [Example 36, (S)-(3-Fluorophenyl)(4-(3-phenylpropyl)-7-azabicyclo[2.2.1]heptan-1-yl)methanol hydrochloride], in that order: 25 to 50% and under 25%.
In the case of `O[C@H](c1cccc(F)c1)C12CCC(CCc3ccc(Cl)cc3)(CC1)N2` [Example 37, (R)-4-(4-Chlorophenethyl)-7-azabicyclo[2.2.1]heptan-1-yl)-(3-fluorophenyl)methanol acetate], the Emax at 10 µM in assay [1] and in assay [2] was under 25% throughout.
Consider `O[C@@H](c1cccc(F)c1)C12CCC(CCc3ccc(Cl)cc3)(CC1)N2` [Example 38, (S)-(4-(4-Chlorophenethyl)-7-azabicyclo[2.2.1]heptan-1-yl)(3-fluoro-phenyl)methanol acetate], for which the Emax at 10 µM in assay [1] and in assay [2] was under 25% each time.
Consider `COc1ccc(CCC23CCC([C@H](O)c4cccc(F)c4)(CC2)N3)cc1` [Example 39, (R)-(3-Fluorophenyl)(4-(4-methoxyphenethyl)-7-azabicyclo[2.2.1]heptan-1-yl)methanol acetate], for which the Emax at 10 µM is 50 to 75% in assay [1] and under 25% in assay [2].
In the same order, the values of `COc1ccc(CCC23CCC([C@@H](O)c4cccc(F)c4)(CC2)N3)cc1` [Example 40, (S)-(3-Fluorophenyl)(4-(4-methoxyphenethyl)-7-azabicyclo[2.2.1]heptan-1-yl)methanol acetate] are under 25% and under 25%.
In the same order, the values of `COc1ccc(CCC23CCC([C@H](O)c4cncc(F)c4)(CC2)N3)cc1` [Example 41, (R)-(5-Fluoropyridin-3-yl)(4-(4-methoxyphenethyl)-7-azabicyclo-[2.2.1]heptan-1-yl)methanol dihydrochloride] are 50 to 75% and 25 to 50%.
For `COc1ccc(CCC23CCC([C@@H](O)c4cncc(F)c4)(CC2)N3)cc1` [Example 42, (S)-(5-Fluoropyridin-3-yl)(4-(4-methoxyphenethyl)-7-azabicyclo-[2.2.1]heptan-1-yl)methanol dihydrochloride], in that order: under 25% and under 25%.
